Experimental data: patent publication US6998415B2, “Substituted sulfonylphenylheterocycles as cyclooxygenase-2 and 5-lipoxygenase inhibitors” (Pharmacia Corporation, priority 1996, dated 2006)
pIC50: −log10 of the molar value.

Columns and labels:
COX-2 = biological target: T1, COX-2 (UniProt P35354); assay: Assay for COX-2 activity in vitro (PGE2 ELISA, recombinant enzyme); assay type: biochemical, human or murine; settings: recombinant COX-2, arachidonic acid 10 μM, pre-incubation 10–20 minutes
T1 sequence (P35354 1-604): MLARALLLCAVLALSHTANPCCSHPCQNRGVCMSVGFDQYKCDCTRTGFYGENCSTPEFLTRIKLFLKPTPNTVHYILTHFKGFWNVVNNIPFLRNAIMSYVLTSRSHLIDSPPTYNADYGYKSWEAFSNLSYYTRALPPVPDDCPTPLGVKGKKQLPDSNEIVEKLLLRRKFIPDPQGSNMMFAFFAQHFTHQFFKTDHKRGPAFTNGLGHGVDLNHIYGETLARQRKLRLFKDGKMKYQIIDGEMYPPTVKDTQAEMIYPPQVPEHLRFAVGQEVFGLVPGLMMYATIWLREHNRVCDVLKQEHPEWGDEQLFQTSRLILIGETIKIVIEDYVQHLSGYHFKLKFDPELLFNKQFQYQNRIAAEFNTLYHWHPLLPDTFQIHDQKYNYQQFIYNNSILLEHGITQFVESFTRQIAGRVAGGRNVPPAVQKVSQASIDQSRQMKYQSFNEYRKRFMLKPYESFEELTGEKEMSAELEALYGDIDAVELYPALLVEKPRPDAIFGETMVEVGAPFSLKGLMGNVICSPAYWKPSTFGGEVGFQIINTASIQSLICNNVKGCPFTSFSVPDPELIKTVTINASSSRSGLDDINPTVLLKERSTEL
Method: Evaluation of COX-1 and COX-2 Activity in vitro
The COX-2 inhibit on activity of the compounds or this invention illustrated in the Examples was determined by the following methods. a. Preparation of Recombinant COX Baculoviruses
(§1) Recombinant COX-1 and COX-2 were prepared as described by Gierse et al, [J. Biochem., 305, 479–84 (1995)]. A 2.0 kb fragment containing the coding region of either human or murine COX-1 or human or murine COX-2 was cloned into a BamHI site of the baculovirus transfer vector pVL1393 (Invitrogen) to generate the baculovirus transfer vectors for COX-1 and COX-2 in a manner similar to the method of D. R. O'Reilly et al (Baculovirus Expression Vectors: A Laboratory Manual (1992)). Recombinant baculoviruses were isolated by transfecting 4 μg of baculovirus transfer vector DNA into SF9 insect cells (2×10^8) along with 200 ng of linearized baculovirus plasmid DNA by the calcium phosphate method. See M. D. Summers and G. E. Smith, A Manual of Methods for Baculovirus Vectors and Insect Cell Culture Procedures, Texas Agric. Exp. Station Bull. 1555 (1987). Recombinant viruses were purified by three rounds of plaque purification and high titer (10^7–10^8 pfu/ml) stocks of virus were prepared. For large scale production, SF9 insect cells were infected in 10 liter fermentors (0.5×10^6/ml) with the recombinant baculovirus stock such that the multiplicity of infection was 0.1. After 72 hours the cells were centrifuged and the cell pellet homogenized in Tris/Sucrose (50 mM: 25%, pH 8.0) containing 1% 3-[(3-cholamidopropyl)dimethylammonio]-1-propanesulfonate (CHAPS). The homogenate was centrifuged at 10,000×G for 30 minutes, and the resultant supernatant was stored at −80° C. before being assayed for COX activity. […]
(§2) b. Assay for COX-1 and COX-2 Activity
(§3) COX activity was assayed as PGE2 formed/μg protein/time using an ELISA to detect the prostaglandin released. CHAPS-solubilized insect cell membranes containing the appropriate COX enzyme were incubated in a potassium phosphate buffer (50 mM, pH 8.0) containing epinephrine, phenol, and heme with the addition of arachidonic acid (10 μM). Compounds were pre-incubated with the enzyme for 10–20 minutes prior to the addition of arachidonic acid. Any reaction between the arachidonic acid and the enzyme was stopped after ten minutes at 37° C./room temperature by transferring 40 μl of reaction mix into 160 μl ELISA buffer and 25 μM indomethacin. The PGE2 formed was measured by standard ELISA technology (Cayman Chemical).

5-lipoxygenase (5-LO) = biological target: T2, 5-lipoxygenase (5-LO) (Homo sapiens, UniProt P09917); assay: Assay for 5-lipoxygenase activity: calcium ionophore-induced LTB4 production in human whole blood; assay type: cell-based; settings: A-23187 (20 μg/ml)-induced LTB4 in human whole blood; mean IC50
T2 construct: calcium ionophore-induced Leukotriene B4 (LTB4) production in human whole blood; endogenous in cells; host or cells: human whole blood (healthy donors), diluted 1:4 in RPMI 1640
T2 sequence (P09917 1-674): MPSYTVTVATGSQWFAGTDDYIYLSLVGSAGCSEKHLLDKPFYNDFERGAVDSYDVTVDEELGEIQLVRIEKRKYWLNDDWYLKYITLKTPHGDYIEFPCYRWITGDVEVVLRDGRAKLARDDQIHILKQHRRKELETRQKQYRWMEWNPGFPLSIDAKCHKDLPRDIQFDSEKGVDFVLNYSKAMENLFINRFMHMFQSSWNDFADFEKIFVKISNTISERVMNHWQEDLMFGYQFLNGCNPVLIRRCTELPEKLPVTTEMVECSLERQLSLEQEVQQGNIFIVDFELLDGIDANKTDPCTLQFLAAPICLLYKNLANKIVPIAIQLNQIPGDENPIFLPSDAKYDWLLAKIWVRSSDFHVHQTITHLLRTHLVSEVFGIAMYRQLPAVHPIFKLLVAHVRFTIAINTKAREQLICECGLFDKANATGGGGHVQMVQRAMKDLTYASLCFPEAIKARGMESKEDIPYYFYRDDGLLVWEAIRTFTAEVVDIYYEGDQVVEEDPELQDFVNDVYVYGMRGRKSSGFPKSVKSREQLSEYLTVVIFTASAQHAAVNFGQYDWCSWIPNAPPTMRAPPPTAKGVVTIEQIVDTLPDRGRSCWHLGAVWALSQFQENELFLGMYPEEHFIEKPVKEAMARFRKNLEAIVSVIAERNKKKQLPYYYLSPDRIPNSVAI
Method: Assay for 5-Lipoxygenase Activity
The 5-lipoxygenase (5-LO) activity of the compounds were determined by the calcium ionophore-induced Leukotriene B4 (LTB4) production in human whole blood. Venous blood was collected from healthy human donors using heparin as an anti-coagulant. Human blood samples (0.2 ml of a 1:4 dilution in RPMI 1640 medium) were incubated in 96-well culture plates for 15 minutes at 37° C. with test compounds dissolved in ethanol (EtOH; final concentration<1%), or vehicle. Typically 7 concentrations of test compounds were examined in duplicate. A-23187 [Sigma] was added to the blood to a final concentration of 20 μg/ml, and the mixtures were incubated for 10 minutes at 37° C. The reaction was stopped by placing the samples on ice. The samples were then centrifuged at 800×g at 4° C. for 10 minutes to pellet the cells, and the supernatants were recovered for quantitation of LTB4 by LISA (Cayman Chemical Co.; sensitivity 3 pg/ml). IC50's were estimated from a four parameter logistic model with two parameters fixed, the minimum (0% inhibition) and maximum (100% inhibition). The IC50 value is the concentration that produces 50% inhibition between the fixed values of the minimum and maximum. Data is reported as the mean IC50 for each compound.

COX-1 = COX-1 (UniProt P23219); assay: Assay for COX-1 activity in vitro (PGE2 ELISA, recombinant enzyme); assay type: biochemical, human or murine; settings: recombinant COX-1, arachidonic acid 10 μM, pre-incubation 10–20 minutes
Method: Evaluation of COX-1 and COX-2 Activity in vitro a. Preparation of Recombinant COX Baculoviruses
as §1, §2, §3

| Structure (SMILES) | pIC50 (COX-2) | pIC50 (5-lipoxygenase (5-LO)) | pIC50 (COX-1) | melting point |
| --- | --- | --- | --- | --- |
| COc1cccc(OCc2cc(-c3ccc(Cl)cc3)n(-c3ccc(S(N)(=O)=O)cc3)n2)c1 [Example 7, 4-[5-(4-Chlorophenyl)-3-(3-methoxyphenyl)oxymethyl-1H-pyrazol-1-yl]benzenesulfonamide] | > 7.00 | 6.19 | 5.42 |  |
| COC1(c2cc(F)cc(OCc3cc(-c4ccc(Cl)cc4)n(-c4ccc(S(N)(=O)=O)cc4)n3)c2)CCOCC1 [Example 1, 4-[5-(4-Chlorophenyl)-3-[[3-fluoro-5-(3,4,5,6-tetrahydro-4-methoxy-2H-pyran-4-yl)phenoxy]methyl]-1H-pyrazol-1-yl]benzenesulfonamide] | > 7.00 | 6.82 | 4.42 |  |
| COC1(c2cc(F)cc(Oc3nc(-c4ccccc4)c(-c4ccc(S(N)(=O)=O)cc4)o3)c2)CCOCC1 [Example 4, 4-[2-[3-Fluoro-5-(4-methoxy-3,4,5,6-tetrahydro-2H-pyran-4-yl)phenoxy]-4-phenyl-5-oxazolyl]benzenesulfonamide] | > 7.00 | 4.85 | > 7.00 | 159 to 161 °C |
| COC(=O)C(Cc1cccc(C2(OC)CCOCC2)c1)c1nc(-c2ccccc2)c(-c2ccc(S(N)(=O)=O)cc2)o1 (stereo not drawn) [Example 9, Methyl 5-[4-(aminosulfonyl)phenyl]-α-[[3-(3,4,5,6-tetrahydro-4-methoxypyran-4-yl)phenyl]methyl]-4-phenyloxazole-2-acetate] | 5.00 | < 5.00 | 4.10 | 88.7 to 94.9 °C |
| COC1(c2cc(F)cc(OCc3nc(-c4ccccc4)c(-c4ccc(S(N)(=O)=O)cc4)o3)c2)CCOCC1 [Example 8, 4-[2-[[3-Fluoro-5-(3,4,5,6-tetrahydro-4-methoxypyran-4-yl)phenoxy]methyl]-4-phenyloxazol-5-yl]benzenesulfonamide] | > 7.00 | 6.52 | 5.89 | 70 to 80 °C |
| COC1(c2cccc(OCc3nc(-c4ccc(F)cc4)c(-c4ccc(S(C)(=O)=O)cc4)o3)c2)CCOCC1 [Example 2, 4-(4-Fluorophenyl)-5-(4-(methylsulfonyl)phenyl)-2-[[3-(3,4,5,6-tetrahydro-4-methoxy-2H-pyran-4-yl)phenoxy]methyl]oxazole] | 6.70 | 7.30 | < 5.00 |  |
| COc1cccc(SCc2cc(-c3ccc(Cl)cc3)n(-c3ccc(S(N)(=O)=O)cc3)n2)c1 [Example 6, 4-[5-(4-Chlorophenyl)-3-(3-methoxyphenyl)thiomethyl-1H pyrazol-1-yl]benzenesulfonamide] | > 7.00 | 6.36 | 5.66 |  |
| COC1(c2cccc(Oc3nc(-c4ccccc4)c(-c4ccc(S(N)(=O)=O)cc4)o3)c2)CCOCC1 [Example 5, 4-[2-[3-(4-Methoxy-3,4,5,6-tetrahydro-2H-pyran-4-yl)phenoxy]-4-phenyl-5-oxazolyl]benzenesulfonamide] | > 7.00 | 4.77 | > 7.00 | 145 to 147 °C |

Results, then the compound that gave them:

| pIC50 (COX-2) | pIC50 (5-lipoxygenase (5-LO)) | pIC50 (COX-1) | melting point | Structure (SMILES) |
| --- | --- | --- | --- | --- |
| > 7.00 | < 5.00 | 5.64 | 60.9 to 66.4 °C | COC1(c2cccc(CSCCc3nc(-c4ccccc4)c(-c4ccc(S(N)(=O)=O)cc4)o3)c2)CCOCC1 [Example 19, 4-[2-[[[3-(3,4,5,6-Tetrahydro-4-methoxypyran-4-yl)phenylmethyl]thio]ethyl]-4-phenyloxazol-5-yl]benzenesulfonamide] |
| > 7.00 | < 5.00 | < 4.00 |  | COC1(c2cc(F)cc(OCc3onc(-c4ccccc4)c3-c3ccc(S(N)(=O)=O)cc3)c2)CCOCC1 [Example 16, 4-[5-[[3-Fluoro-5-(3,4,5,6-tetrahydro-4-methoxypyran-4-yl)phenoxy]methyl]-3-phenylisoxazol-4-yl]benzenesulfonamide] |
| 6.30 | 5.01 | < 4.00 | 62.1 to 71.2 °C | COC1(c2cccc(COCc3nc(-c4ccccc4)c(-c4ccc(S(N)(=O)=O)cc4)o3)c2)CCOCC1 [Example 17, 4-[2-[[[3-(3,4,5,6-Tetrahydro-4-methoxypyran-4-yl)phenylmethyl]oxy]methyl]-4-phenyloxazol-5-yl]benzenesulfonamide] |
| > 7.00 | < 5.00 | < 4.00 | 86 to 100 °C | COC1(c2cc(F)cc(OCC#Cc3ccc(Cc4nc(-c5ccccc5)c(-c5ccc(S(N)(=O)=O)cc5)o4)cc3)c2)CCOCC1 [Example 12, 4-[2-[[4-[3-[3-Fluoro-5-(3,4,5,6-tetrahydro-4-methoxypyran-4-yl)phenoxy]-1-propynyl]phenyl]methyl]-4-phenyloxazol-5-yl]benzenesulfonamide] |
|  |  |  | 77.2 to 81.7 °C | COC1(c2cccc(CSCc3nc(-c4ccccc4)c(-c4ccc(S(N)(=O)=O)cc4)o3)c2)CCOCC1 [Example 18, 4-[2-[[[3-(3,4,5,6-Tetrahydro-4-methoxypyran-4-yl)phenylmethyl]thio]methyl]-4-phenyloxazol-5-yl]benzenesulfonamide] |
| 5.96 | < 5.00 | < 4.00 |  | COC1(c2cc(F)cc(OCC(=O)NCCc3nc(-c4ccccc4)c(-c4ccc(S(N)(=O)=O)cc4)o3)c2)CCOCC1 [Example 22] |
